Like-named read-outs stand apart in the source and are kept apart here.
Legend:
[1] = target: T1, Glucocorticoid Receptor (GR) (Homo sapiens, UniProt P04150); experiment: Transactivation assay (MMTV-Luc reporter in HeLa cells); format: cell-based
T1 construct: Cells were transfected the next day with MMTV-Luc (5 μg) and pGL4-hRLuc (0.1 μg); endogenous in cells; host or cells: HeLa
T1 sequence (P04150 1-777): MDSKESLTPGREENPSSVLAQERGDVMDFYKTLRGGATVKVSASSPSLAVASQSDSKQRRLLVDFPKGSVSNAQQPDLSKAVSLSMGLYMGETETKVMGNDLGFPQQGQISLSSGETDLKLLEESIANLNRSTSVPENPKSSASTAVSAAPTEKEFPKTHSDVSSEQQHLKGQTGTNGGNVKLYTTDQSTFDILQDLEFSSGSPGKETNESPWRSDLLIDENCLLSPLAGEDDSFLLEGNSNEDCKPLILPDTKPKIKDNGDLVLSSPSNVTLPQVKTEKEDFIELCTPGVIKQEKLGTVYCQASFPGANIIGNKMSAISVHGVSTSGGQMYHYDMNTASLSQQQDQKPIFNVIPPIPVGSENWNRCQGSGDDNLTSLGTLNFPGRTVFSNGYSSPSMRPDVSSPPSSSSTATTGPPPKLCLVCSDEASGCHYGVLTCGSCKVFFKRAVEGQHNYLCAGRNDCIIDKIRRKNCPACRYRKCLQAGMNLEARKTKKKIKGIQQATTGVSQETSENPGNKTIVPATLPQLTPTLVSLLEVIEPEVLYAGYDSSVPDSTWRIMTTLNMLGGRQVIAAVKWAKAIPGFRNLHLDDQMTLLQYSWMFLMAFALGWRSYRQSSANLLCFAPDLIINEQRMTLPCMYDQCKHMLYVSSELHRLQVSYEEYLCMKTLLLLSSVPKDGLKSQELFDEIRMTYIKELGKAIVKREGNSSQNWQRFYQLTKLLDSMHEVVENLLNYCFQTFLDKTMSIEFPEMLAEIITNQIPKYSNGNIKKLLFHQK
Protocol: HeLa cells were seeded at 80×10^4 cells/dish in 100 mm dishes. Cells were transfected the next day with MMTV-Luc (5 μg) and pGL4-hRLuc (0.1 μg), in 250 μL of Opti-MEM I using FuGENE HD (15 μL). After 24 hours, cells were trypsinized and seeded into 96-well plates at a density of 8-10×10^4 cells/mL.
Following overnight incubation to allow attachment, cells were treated with the required concentration of compounds, then further incubated for 16 hours. Media was aspirated and cells lysed in 40 μL of 1×PLB.
(§1) Firefly and Renilla luciferase activity was measured using the Dual Luciferase Reporter system following the manufacturer's protocol.
(§2) IC50 and EC50 values were calculated by using GraphPad Prism 5.0. Briefly, luminescence values for luciferase were normalised using the Renilla luminescence values. The normalised values were input into GraphPad Prism 5.0. Non-linear regression analysis was carried out using the “log(concentration) vs. response” equation of the software, with a Hill slope coefficient fixed at 1.
(§3) IC50 and EC50 values are mean values in nM of all IC50/EC50 values for the compound. Max % values are mean values of the Max% activity.

NFkB = experiment: Transrepression assay (NFκB-LUC reporter in HeLa cells, TNF stimulated); format: cell-based; details: for Emax / IC50: Homo sapiens, HeLa; for Emax: 16 h, read-out: TR Max %
Protocol: HeLa cells were seeded at 80×10^4 cells/dish in 100 mm dishes. Cells were transfected the next day with NFκB-LUC reporter (5 μg) and pGL4-hRLuc (0.1 μg), in 0.25 mL of Opti-MEM I using FuGENE HD (15 μL). After 24 hours, cells were trypsinized and seeded in to 24-well plates at a density of 8-10×10^4 cells/mL. Following overnight incubation, cells were starved for a further 24 hours in DMEM.
On the day of the experiment, compounds were added to cells one hour prior to the addition of […] (0.5 ng/mL). After a further 16 hours, cells were washed twice with ice-cold PBS, then lysed with 100 μL of 1×PLB.
as §1, §2, §3

[2] = concentration for half-maximal transactivation; HeLa, MMTV-Luc, 16 hours; mean; read-out: TA EC50
[3] = concentration for half-maximal repression of NFkB, TNF 0.5 ng/mL, 16 hours, mean, read-out: TR IC50

Compound	Emax ([1]; HeLa, 16 h; read-out: TA Max %) [%]	EC50 [1, 2] [nM]	Emax (NFkB) [%]	IC50 (NFkB; [3]) [nM]	TA % ([1]; comparison table; against maximal activation seen with dexamethasone) [%]	IC50 (NFkB; comparison table, half-maximal repression of NFkB, multiple experiments, read-out: IC50) [nM]	TR % (NFkB; comparison table, maximal NFkB repression compared to Dexamethasone) [%]	Emax ([1]; HeLa, 16 h, read-out: TA Max %) [%]
C[C@@H]1C[C@H]2[C@@H]3CCC4=CC(=O)C=C[C@]4(C)[C@@]3(F)[C@@H](O)C[C@]2(C)[C@@]1(O)c1csc(NCc2ccccc2)n1 [Compound 25]	1.92	3930	79	29.1	–	–	–	–
COc1ccc(OCCCCNC(=O)[C@@]2(O)[C@H](C)C[C@H]3[C@@H]4CCC5=CC(=O)C=C[C@]5(C)[C@@]4(F)[C@@H](O)C[C@@]32C)cc1 [Compound 18]	26.3	669	82.1	6.83	26	5.96	84	–
C[C@@H]1C[C@H]2[C@@H]3CCC4=CC(=O)C=C[C@]4(C)[C@@]3(F)[C@@H](O)C[C@]2(C)[C@@]1(O)c1csc(NC(=O)c2ccncc2)n1 [Compound 31]	0	–	37.5	11.2	–	–	–	–
COc1cccc(OCCCNC(=O)[C@@]2(O)[C@H](C)C[C@H]3[C@@H]4CCC5=CC(=O)C=C[C@]5(C)[C@@]4(F)[C@@H](O)C[C@@]32C)c1 [Compound 15]	20.8	1230	79.7	3.53	–	–	–	–
C[C@@H]1C[C@H]2[C@@H]3CCC4=CC(=O)C=C[C@]4(C)[C@@]3(F)[C@@H](O)C[C@]2(C)[C@@]1(O)C(=O)NCCCc1ccccn1 [Compound 2]	18.3	1180	52.4	23.5	–	–	–	–
COc1ccc(C(=O)Nc2nc([C@@]3(O)[C@H](C)C[C@H]4[C@@H]5CCC6=CC(=O)C=C[C@]6(C)[C@@]5(F)[C@@H](O)C[C@@]43C)cs2)cc1 [Compound 34]	0	17500	51.8	4.76	–	–	–	–
C[C@@H]1C[C@H]2[C@@H]3CCC4=CC(=O)C=C[C@]4(C)[C@@]3(F)[C@@H](O)C[C@]2(C)[C@@]1(O)c1csc(NC(=O)c2ccc(Cl)cc2)n1 [Compound 27]	5.89	1640	49.7	10.9	–	–	–	–
C[C@@H]1C[C@H]2[C@@H]3CCC4=CC(=O)C=C[C@]4(C)[C@@]3(F)[C@@H](O)C[C@]2(C)[C@@]1(O)c1csc(NC(=O)c2ccccc2F)n1 [Compound 28]	0	29400	36	120	–	–	–	–
C[C@@H]1C[C@H]2[C@@H]3CCC4=CC(=O)C=C[C@]4(C)[C@@]3(F)[C@@H](O)C[C@]2(C)[C@@]1(O)C(=O)NCCCc1ccccc1 [Compound 11]	36.5	114	88.8	30.2	–	–	–	–
C[C@@H]1C[C@H]2[C@@H]3CCC4=CC(=O)C=C[C@]4(C)[C@@]3(F)[C@@H](O)C[C@]2(C)[C@@]1(O)c1csc(NC(=O)c2cscn2)n1 [Compound 36]	1.19	5520	33.6	10.6	–	–	–	–
Cc1ccc(C(=O)Nc2nc([C@@]3(O)[C@H](C)C[C@H]4[C@@H]5CCC6=CC(=O)C=C[C@]6(C)[C@@]5(F)[C@@H](O)C[C@@]43C)cs2)cc1 [Compound 45]	5.74	8480	42.3	20.2	–	–	–	–
C[C@@H]1C[C@H]2[C@@H]3CCC4=CC(=O)C=C[C@]4(C)[C@@]3(F)[C@@H](O)C[C@]2(C)[C@@]1(O)C(=O)NCCCOc1ccc(C(F)(F)F)cc1 [Compound 9]	15.1	1110	80.5	25	–	–	–	–
COc1ccc(OCCCNC(=O)[C@@]2(O)[C@H](C)C[C@H]3[C@@H]4CCC5=CC(=O)C=C[C@]5(C)[C@@]4(F)[C@@H](O)C[C@@]32C)cc1 [Compound 4]	–	69.2	106	3.95	–	–	–	39.4
C[C@@H]1C[C@H]2[C@@H]3CCC4=CC(=O)C=C[C@]4(C)[C@@]3(F)[C@@H](O)C[C@]2(C)[C@@]1(O)C(=O)NCCCc1cccc(F)c1 [Compound 14]	36.6	536	88.6	23.9	–	–	–	–
C[C@@H]1C[C@H]2[C@@H]3CCC4=CC(=O)C=C[C@]4(C)[C@@]3(F)[C@@H](O)C[C@]2(C)[C@@]1(O)C(=O)NCCCOc1ccc(F)cc1 [Compound 6]	16	890	84.6	11.5	–	–	–	–
COc1ccc(OCCCNC(=O)[C@@]2(O)[C@H](C)C[C@H]3[C@@H]4CCC5=CC(=O)C=C[C@]5(C)[C@@]4(F)[C@@H](O)C[C@@]32C)cc1OC [Compound 16]	21.2	881	87.2	26.8	–	–	–	–
C[C@@H]1C[C@H]2[C@@H]3CCC4=CC(=O)C=C[C@]4(C)[C@@]3(F)[C@@H](O)C[C@]2(C)[C@@]1(O)c1csc(NC(=O)c2ccc(C(F)(F)F)cc2)n1 [Compound 30]	7.43	1410	41.3	35.5	–	–	–	–
CCOc1ccc(C(=O)Nc2nc([C@@]3(O)[C@H](C)C[C@H]4[C@@H]5CCC6=CC(=O)C=C[C@]6(C)[C@@]5(F)[C@@H](O)C[C@@]43C)cs2)cc1 [Compound 46]	9.95	6650	55.1	27	–	–	–	–
COc1ccc(CCCNC(=O)[C@@]2(O)[C@H](C)C[C@H]3[C@@H]4CCC5=CC(=O)C=C[C@]5(C)[C@@]4(F)[C@@H](O)C[C@@]32C)cc1OC [Compound 13]	30	189	87.6	10.8	–	–	–	–
C[C@@H]1C[C@H]2[C@@H]3CCC4=CC(=O)C=C[C@]4(C)[C@@]3(F)[C@@H](O)C[C@]2(C)[C@@]1(O)c1csc(NC(=O)c2ncco2)n1 [Compound 33]	0	–	32.7	66.9	–	–	–	–
COc1cccc(C(=O)Nc2nc([C@@]3(O)[C@H](C)C[C@H]4[C@@H]5CCC6=CC(=O)C=C[C@]6(C)[C@@]5(F)[C@@H](O)C[C@@]43C)cs2)c1 [Compound 29]	0.67	19400	44.2	7.96	–	–	–	–

Reference: patent US20170044208A1, “SELECTIVE GLUCOCORTICOID RECEPTOR LIGANDS” (The University of Manchester, priority 2013, published 2017)
